ChEMBL document CHEMBL1201862, “PubChem BioAssay data set” (2004)
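Protocol summary: plate cells (96-well), add compound at 5 concentrations, incubate 48 h, interpolate endpoints linearly. Abbreviation: GI50, concentration required for 50% inhibition of growth.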 The source made the active and inactive calls. No stated cut-off is given here; in the data, active = GI50 up to about 1.1 µM and inactive = higher.

Legend:
Assay in all cases: NCI-60 cell line screen, 48 h
EKVX = system: EKVX
SF-539 = system: SF-539
HT-29 = system: HT-29
ACHN = system: ACHN
SNB-78 = system: SNB-78
SF-268 = system: SF-268
OVCAR-5 = system: OVCAR-5
UACC-257 = system: UACC-257
KM12 = system: KM12
A498 = system: A498
SR = system: SR
SK-MEL-5 = system: SK-MEL-5
HL-60 = system: HL-60
SK-MEL-28 = system: SK-MEL-28
RPMI-8226 = system: RPMI-8226
COLO 205 = system: COLO 205
786-0 = system: 786-0

Measured: GI50

Cc1ccc(C(=O)O/N=C2/CCC/C2=C\c2ccccc2)cc1
inactive: EKVX > 100 µM | SF-539 > 100 µM | HT-29 > 100 µM | ACHN > 100 µM | SNB-78 > 100 µM | SF-268 29.1 µM | OVCAR-5 > 100 µM | UACC-257 > 100 µM | KM12 > 100 µM | A498 > 100 µM | SR > 100 µM | SK-MEL-5 > 100 µM | HL-60 > 100 µM | SK-MEL-28 > 100 µM | RPMI-8226 > 100 µM | COLO 205 > 100 µM | 786-0 > 100 µM

CCCCCCCC(=O)OC(CBr)COC(=O)C(C)(C)C (stereo not drawn)
inactive: EKVX > 100 µM | SF-539 > 10 µM | HT-29 > 88.5 µM | ACHN > 100 µM | SNB-78 > 100 µM | SF-268 > 100 µM | OVCAR-5 > 100 µM | UACC-257 > 100 µM | KM12 > 100 µM | A498 > 100 µM | SR 22.1 µM | SK-MEL-5 > 100 µM | HL-60 38 µM | SK-MEL-28 > 100 µM | RPMI-8226 21.6 µM | COLO 205 > 100 µM | 786-0 > 100 µM

O=C1C=C(Br)C(=O)C(Br)=C1
inactive: EKVX > 100 µM | SF-539 > 100 µM | HT-29 > 100 µM | ACHN > 85.5 µM | SNB-78 > 100 µM | SF-268 > 100 µM | OVCAR-5 > 100 µM | UACC-257 > 100 µM | KM12 > 100 µM | A498 > 100 µM | SR 31.8 µM | SK-MEL-5 > 100 µM | HL-60 20.3 µM | SK-MEL-28 > 100 µM | RPMI-8226 37.6 µM | COLO 205 > 61.4 µM | 786-0 > 100 µM

CCOC(=O)c1[nH]c(COC(C)=O)c2c1CCCCCCCCCC2
inactive: EKVX > 100 µM | SF-539 > 100 µM | HT-29 > 100 µM | SNB-78 > 100 µM | SF-268 > 100 µM | OVCAR-5 > 100 µM | UACC-257 > 100 µM | KM12 > 100 µM | A498 > 100 µM | SR > 100 µM | SK-MEL-5 > 100 µM | HL-60 > 100 µM | RPMI-8226 > 100 µM | COLO 205 > 100 µM | 786-0 > 100 µM

CC(C)C(Sc1nc(-c2ccccc2)c(-c2ccccc2)[nH]1)c1n[nH]c(=S)n1-c1ccccc1 (stereo not drawn)
inactive: EKVX 26.2 µM | SF-539 22.4 µM | HT-29 23.8 µM | ACHN 29.6 µM | SNB-78 46 µM | SF-268 29.4 µM | OVCAR-5 24.7 µM | UACC-257 31.7 µM | KM12 16.1 µM | A498 43.3 µM | SR 32.2 µM | SK-MEL-5 17.7 µM | HL-60 20.7 µM | SK-MEL-28 29.9 µM | RPMI-8226 21.2 µM | COLO 205 23.9 µM | 786-0 30.8 µM

CC(C)=CC(=O)c1c(C(=O)O)nc2ccccc2[n+]1[O-]
inactive: EKVX > 100 µM | SF-539 > 100 µM | HT-29 > 100 µM | ACHN > 100 µM | SNB-78 > 100 µM | SF-268 > 100 µM | OVCAR-5 > 100 µM | UACC-257 > 100 µM | KM12 > 100 µM | A498 > 100 µM | SR > 100 µM | SK-MEL-5 > 100 µM | HL-60 > 100 µM | SK-MEL-28 > 100 µM | RPMI-8226 > 100 µM | COLO 205 > 100 µM | 786-0 > 100 µM

COc1cccc(OC)c1/C=N\N1C(=O)c2ccccc2C1=O
inactive: EKVX > 100 µM | SF-539 24.3 µM | HT-29 35.5 µM | ACHN 47.4 µM | SNB-78 59.4 µM | SF-268 37.8 µM | OVCAR-5 > 100 µM | UACC-257 > 100 µM | KM12 36.6 µM | A498 > 100 µM | SR 32.8 µM | SK-MEL-5 52.1 µM | HL-60 33.9 µM | SK-MEL-28 77.6 µM | RPMI-8226 28.2 µM | 786-0 31.3 µM

C=CC[P@@]1(=O)O[C@H](c2ccccc2)C(C)N1C(C)C (stereo partly drawn)
inactive: EKVX > 100 µM | SF-539 > 100 µM | HT-29 > 100 µM | ACHN > 100 µM | SNB-78 > 100 µM | SF-268 > 100 µM | OVCAR-5 > 100 µM | KM12 > 100 µM | A498 > 100 µM | SR > 100 µM | SK-MEL-5 > 100 µM | HL-60 > 100 µM | SK-MEL-28 > 100 µM | RPMI-8226 > 100 µM | 786-0 > 100 µM

COc1cc(/C=C\c2ccccc2)cc(OC)c1OC
inactive: EKVX 6.01 µM | SF-539 2.56 µM | HT-29 2.75 µM | ACHN 6.98 µM | SNB-78 7.83 µM | SF-268 6.55 µM | OVCAR-5 10.3 µM | UACC-257 5.14 µM | KM12 4.04 µM | A498 5.24 µM | SR 3.71 µM | SK-MEL-5 3.08 µM | HL-60 1.75 µM | SK-MEL-28 6.28 µM | RPMI-8226 4.18 µM | COLO 205 3.08 µM | 786-0 5.08 µM
